Measurements taken from patent publication US20260199350A1, “FLAVONES, QUINOLINONES, QUINAZOLINONES, AND AURONES, AND USES IN CK2-MEDIATED DISEASES” (Salk Institute for Biological Studies, priority 2022, published 2026).

What was measured:
Type in all cases: cell-based, human
[1] = test system: IL-6 secretion; assay: IL-6 secretion assay in astrocytes (Promega Lumit IL-6 kit); details: astrocytes and microglia; FIG. 2D, FIG. 1C
How it was run: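 Human astrocytes (HCAs), 20,000 per well, cultured 2-3 days, then stimulated with 10 ng/mL IL1B alongside compound dilution series. IL-6 secreted over 5 h quantified by Lumit IL-6 luminescent immunoassay.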

[2] = test system: microglial phagocytosis; assay: Microglial phagocytosis assay (pHrodo E. coli beads); details: 20 μM, P=0.0015
Experimental: Phagocytosis assay. […] (2-3 biological replicates). Then, 0.5 μL of pHrodo E. Coli-FITC beads (Thermo Fisher, P35366) was added per well with gentle mixing and the cells were incubated for another 4 hours. pHrodo beads only fluoresce when they are internalized in cells. Cells were then collected by scraping, washed with FACS buffer (1×DPBS, 2% BSA, and 0.05 mM EDTA pH 8.0), and counter-stained with Zombie Violet to assess viability. Live cells were analyzed on the FACS Canto instrument for geometric mean fluorescence on the FITC channel. The background FITC fluorescence value (pHrodo beads only) was subtracted from each mean, and fold-change was computed across experimental groups.

[3] = test system: IκBα; assay: Immunoblot of IκBα and pIκB S32 in inflamed astrocytes; details: 6 hours
Experimental: Western blotting. For drug treatment assays, cells were treated with vehicle (DMSO) or 20 μM compound and stimulated with IL1B 10 ng/mL for 1 h, 6 h, or 24 h. Cells were dissociated with 1:1 Accutase:papain for 3 min at rt, pelleted for 5 min at 800 g, and washed twice with cold DPBS. Pellets were lysed with RIPA buffer (Sigma R^0278) supplemented with Halt protease inhibitor cocktail (Thermo Fisher 78445) and clarified by centrifugation (16,000 g, 10 min, 4° C.). Protein concentration was determined by BCA assay (Thermo Fisher). Proteins were denatured in 1×LDS Buffer and 2.5% beta-mercaptoethanol (Sigma) for 10 min at 70° C., separated on Bolt 4-12% Bis-Tris Plus polyacrylamide gels (Thermo Fisher), transferred to PVDF membranes using the iBlot 2 Dry Blotting System, and blocked with 0.1% casein-PBS (Bio-Rad) for 1 h at room temperature. The blots were incubated with primary antibodies overnight at 4° C. in PBS containing 0.1% casein and 0.2% Tween-20. […] The blots were imaged using the Odyssey CLx imaging system and blots were analyzed on the ImageStudio software (LI-COR).

[4] = test system: phosphorylated NF-κB; assay: pNF-κB immunoblot in AD patient-derived astrocytes; details: 5 h treatment

COc1cc(-c2cc(=O)c3c(O)cc(O)cc3o2)ccc1O [CHR, Chrysoeriol]
Anti-inflammatory effects, dose dependence [1]: dose-dependent | Microglial phagocytosis of pHrodo E. coli beads [2]: blocked | IκBα levels [3]: dose-dependently boosted | phosphorylated IκB S32 [3]: remained unchanged | Elevated phosphorylated NF-κB in AD astrocytes [4]: reduced
